Read-outs that look alike come from different tables or passages of the source.
Legend:
[1] = target: T1, human recombinant dopamine D4.2 receptor (Homo sapiens, UniProt P21917, DEL265-296); experiment: Receptor binding assay, D4.2 dopamine receptor ([3H]spiperone competition, CHO K1 cell membranes)
T1 construct: expressed in transfected cells; host or cells: CHO K1
T1 sequence (P21917 with tags, fused parts or gaps DEL265-296): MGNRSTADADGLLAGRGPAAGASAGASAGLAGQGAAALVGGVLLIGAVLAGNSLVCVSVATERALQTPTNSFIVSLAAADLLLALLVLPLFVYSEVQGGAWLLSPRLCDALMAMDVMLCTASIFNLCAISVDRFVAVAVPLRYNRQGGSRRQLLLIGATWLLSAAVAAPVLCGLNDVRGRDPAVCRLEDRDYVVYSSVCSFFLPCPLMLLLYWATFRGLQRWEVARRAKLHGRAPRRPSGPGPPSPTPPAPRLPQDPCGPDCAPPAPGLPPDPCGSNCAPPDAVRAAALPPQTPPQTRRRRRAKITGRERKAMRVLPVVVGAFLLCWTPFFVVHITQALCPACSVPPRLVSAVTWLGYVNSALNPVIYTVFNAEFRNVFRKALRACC
Excerpt: (§1) A cell line expressing human dopamine D2 (Long form) receptors was purchased from Oregon Health Sciences University, Portland, Oreg. The D2 receptor cDNA was subcloned into an expression vector, pRc/CMV. The plasmids were transfected by electroporation into CHO K1 cells. A single stable transfectant, resistant to the antibiotic G418, was isolated and selected for use in the binding studies. For D4 binding, CHO K1 cells stably transfected to express the human recombinant dopamine D4.2 receptor subtype, as described by Shih, et al., "The expression and functional characterization of human dopamine D4.2 receptor in CHO K1 cells," Soc. Neurosci., 21(Part 1):621 (1995).
(§2) CHO K1 cells expressing either human D2 and D4.2 receptors were grown in 162 cm^2 culture flasks in F12 medium (Gibco Laboratories, Grand Island, N.Y.) supplemented with 10% fetal bovine serum (FBS, Hyclone, Logan, Utah) in an atmosphere of 5% CO2 /95% air at 37° C. Cells were grown until confluent, after which growth medium was removed and replaced with 0.02% ethylene diamine tetracetate (EDTA) in a phosphate-buffered saline solution (Sigma Chemical Co., St. Louis, Mo.) and scraped from the flasks. The cells were centrifuged at about 1000×g for 10 minutes at 40° C. and then resuspended in TEM buffer (25 mM Tris-HCL, pH 7.4, 5 mM EDTA, and 6 mM MgCl2) for D2 or the D4.2 buffer (50 mM Tris-HCl, pH 7.4, 5 mM EDTA, 1.5 mM CaCl2, 5 mM KCl, and 120 mM NaCl) and homogenized. The membranes were pelleted by centrifugation at 20,000×g at 40° C. for 20 minutes. Then the pellets were resuspended in appropriate buffer at 1 mL/flask and stored at -70° C. until used in the receptor binding assay.
(§3) After 60 minutes incubation at 25° C., the incubations were terminated by rapid filtration through Whatmann GF/B glass fibre filters (soaked for 1 hour in 0.5% polyethylenimine) on a -cell harvester, with three washes of 1 mL ice-cold buffer. Individual filter disks containing the bound ligand were placed in counting vials with 4 mL of scintillation fluid (Ready Gel, Beckman Instrument Inc., Fullerton, Calif.) and then counted in a Beckman LS-6800 liquid scintillation counter at an efficiency of 45%. Nonspecific binding was defined in presence of 1 mM of haloperidol.
(§4) Saturation and competition binding data were analyzed using an iterative nonlinear least-square curve-fitting Ligand program. In competition experiments, apparent Ki values were calculated from IC50 values by method of Cheng and Prusoff, "Relationship between the inhibition constant (Ki) and the concentration of inhibitor which causes 50% inhibition (IC50) of an enzymatic reaction," Biochem. Pharmacol., 22:3099-3108 (1973). Experimental compounds were made up as stock solutions in dimethyl sulfoxide (DMSO). […] Each observation was carried out in triplicate. To allow these calculations, Kd values were measured for the interaction of various ligands with the receptor. […]

[2] = target: human dopamine D2 (Long form) receptors (Homo sapiens, UniProt P14416); experiment: biochemical; format: binding; conditions: 0.2 nM [3H]spiperone, CHO K1 membranes, 60 min, 25° C.; apparent Ki from IC50 (Cheng-Prusoff)
human dopamine D2 (Long form) receptors, sequence (P14416 whole entry): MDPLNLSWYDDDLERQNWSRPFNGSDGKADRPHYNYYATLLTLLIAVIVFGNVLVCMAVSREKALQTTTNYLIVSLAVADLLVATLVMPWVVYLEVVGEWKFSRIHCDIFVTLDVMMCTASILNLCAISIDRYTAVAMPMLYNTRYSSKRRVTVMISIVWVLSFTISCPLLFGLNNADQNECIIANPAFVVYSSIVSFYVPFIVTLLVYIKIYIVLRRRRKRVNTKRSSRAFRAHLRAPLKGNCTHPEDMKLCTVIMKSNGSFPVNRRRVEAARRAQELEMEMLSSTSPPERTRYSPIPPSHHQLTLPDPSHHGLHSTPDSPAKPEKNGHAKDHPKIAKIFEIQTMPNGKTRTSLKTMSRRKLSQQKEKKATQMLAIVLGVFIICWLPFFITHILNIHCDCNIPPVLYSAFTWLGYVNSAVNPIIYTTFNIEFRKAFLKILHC
Excerpt: as §1, §2, §3, §4

[3] = 0.2 nM [3H]spiperone, CHO K1 membranes, 60 min, 25° C., apparent Ki from IC50 (Cheng-Prusoff), read-out: D4 Ki

For `Cc1cccc(N2CCN(Cc3ccc4ccccc4n3)CC2)c1` [2-(4-m-Tolyl-piperazin-1-ylmethyl)-quinoline], the Ki [1, 3] was 127 nM.

`Cc1ccc(N2CCN(Cc3ccc4ccccc4n3)CC2)cc1` [2-(4-p-Tolyl-piperazin-1-ylmethyl)-quinoline] showed a Ki [1, 3] of 1.55 nM and a Ki [2] of 2850 nM.

Molecule `O=Cc1ccc(N2CCN(Cc3ccc4ccccc4n3)CC2)cc1Cl` [2-Chloro-4-(4-quinolin-2-ylmethyl-piperazin-1-yl)-benzaldehyde] has a Ki [1, 3] of 87 nM.

`Clc1cccc(N2CCN(Cc3ccc4ccccc4n3)CC2)c1Cl` [2-[4-(2,3-Dichloro-phenyl)-piperazin-1-ylmethyl]-quinoline] was tested, and the Ki [1, 3] was 59.5 nM.

Work on `Clc1ccc(N2CCN(Cc3ccc4ccccc4n3)CC2)cc1Cl` [2-[4-(3,4-Dichloro-phenyl)-piperazin-1-ylmethyl]-quinoline] yielded a Ki [1, 3] of 61 nM and a Ki [2] greater than 5880 nM.

`Cc1ccc(N2CCN(Cc3ccc4ccccc4n3)CC2)cc1C` [2-[4-(3,4-Dimethyl-phenyl)-piperazin-1-ylmethyl]-quinoline] was tested, and the Ki [1, 3] was 13 nM and the Ki [2] was greater than 5880 nM.

`Clc1cc(Cl)cc(N2CCN(Cc3ccc4ccccc4n3)CC2)c1` [2-[4-(3,5-Dichloro-phenyl)-piperazin-1-ylmethyl]-quinoline] showed a Ki [1, 3] of 121 nM.

Work on `Brc1cccc(N2CCN(Cc3ccc4ccccc4n3)CC2)c1` [2-[4-(3-Bromo-phenyl)-piperazin-1-ylmethyl]-quinoline] yielded a Ki [1, 3] of 46 nM.

Molecule `COCc1ccc(N2CCN(Cc3ccc4ccccc4n3)CC2)cc1Cl` [2-[4-(3-Chloro-4-methoxymethyl-phenyl)-piperazin-1-ylmethyl]-quinoline] has a Ki [1, 3] of 31.5 nM and a Ki [2] greater than 5880 nM.

`Cc1ccc(N2CCN(Cc3ccc4ccccc4n3)CC2)cc1Cl` [2-[4-(3-Chloro-4-methyl-phenyl)-piperazin-1-ylmethyl]-quinoline] was tested, and the Ki [1, 3] was 36 nM and the Ki [2] was greater than 5880 nM.

With `Clc1cccc(N2CCN(Cc3ccc4ccccc4n3)CC2)c1` [2-[4-(3-Chloro-phenyl)-piperazin-1-ylmethyl]-quinoline] the Ki [1, 3] was 2.72 nM and the Ki [2] was greater than 5880 nM.

Work on `CCCc1cccc(N2CCN(Cc3ccc4ccccc4n3)CC2)c1` [2-[4-(3-Propyl-phenyl)-piperazin-1-ylmethyl]-quinoline] yielded a Ki [1, 3] of 57 nM and a Ki [2] of 5810 nM.

Molecule `FC(F)(F)c1cc(N2CCN(Cc3ccc4ccccc4n3)CC2)ccc1Cl` [2-[4-(4-Chloro-3-trifluoromethyl-phenyl)-piperazin-1-ylmethyl]-quinoline] has a Ki [1, 3] of 122 nM.

`Fc1ccc(C2=CCN(Cc3ccc4ccccc4n3)CC2)cc1` [2-[4-(4-Fluoro-phenyl)-3,6-dihydro-2H-pyridin-1-ylmethyl]-quinoline] gave a Ki [1] of 14.4 nM and a Ki [2] of 254 nM.

`COc1ccc(N2CCN(Cc3ccc4ccccc4n3)CC2)cc1` [2-[4-(4-Methoxy-phenyl)-piperazin-1-ylmethyl]-quinoline] gave a Ki [1, 3] of 101 nM.

With `N#Cc1ccc(N2CCN(Cc3ccc4ccccc4n3)CC2)cc1Cl` [2-chloro-4-(4-quinolin-2-ylmethyl-piperazin-1-yl)-benzonitrile] the Ki [1] was 101 nM.

In the case of `c1ccc(N2CCN(Cc3cnc4ccccc4c3)CC2)cc1` [3-(4-Phenyl-piperazin-1-ylmethyl)-quinoline], the Ki [1, 3] is reported as 16 nM and the Ki [2] is reported as 1790 nM.

With `Cc1ccc(N2CCN(Cc3cnc4ccccc4c3)CC2)cc1` [3-(4-p-Tolyl-piperazin-1-ylmethyl)-quinoline] the Ki [1, 3] was 21 nM and the Ki [2] was 2160 nM.

For `Fc1ccccc1N1CCN(Cc2cnc3ccccc3c2)CC1` [3-[4-(2-Fluoro-phenyl)-piperazin-1-ylmethyl]-quinoline], the Ki [1, 3] was 29 nM and the Ki [2] was 512 nM.

For `c1ccc(N2CCN(Cc3ccc4ncccc4c3)CC2)cc1` [6-(4-Phenyl-piperazin-1-ylmethyl)-quinoline], the Ki [1, 3] was 26 nM and the Ki [2] was 1380 nM.

Molecule `OCc1ccc(N2CCN(Cc3ccc4ccccc4n3)CC2)cc1Br` [[2-Bromo-4-(4-quinolin-2-ylmethyl-piperazin-1-yl)-phenyl]-methanol] has a Ki [1, 3] of 36 nM and a Ki [2] greater than 5880 nM.

For `OCc1ccc(N2CCN(Cc3cnc4ccccc4c3)CC2)cc1Br` [[2-Bromo-4-(4-quinolin-3-ylmethyl-piperazin-1-yl)-phenyl]-methanol], the Ki [1, 3] was 13.5 nM and the Ki [2] was greater than 5880 nM.

Work on `OCc1ccc(N2CCN(Cc3ccc4ccccc4n3)CC2)cc1Cl` [[2-Chloro-4-(4-quinolin-2-ylmethyl-piperazin-1-yl)-phenyl]-methanol] yielded a Ki [1, 3] of 8.27 nM and a Ki [2] greater than 10000 nM.

Molecule `OCc1ccc(N2CCN(Cc3ccc4ccccc4n3)CC2)cc1F` [[2-Fluoro-4-(4-quinolin-2-ylmethyl-piperazin-1-yl)-phenyl]-methanol] has a Ki [1, 3] of 87 nM.

With `OCc1ccc(N2CCN(Cc3cnc4ccccc4c3)CC2)cc1F` [[2-Fluoro-4-(4-quinolin-3-ylmethyl-piperazin-1-yl)-phenyl]-methanol] the Ki [1, 3] was 8.8 nM and the Ki [2] was greater than 5880 nM.

For `OCc1ccc(N2CCN(Cc3ccc4ccccc4n3)CC2)cc1` [[4-(4-Quinolin-2-ylmethyl-piperazin-1-yl)-phenyl]-methanol], the Ki [1, 3] was 139 nM and the Ki [2] was greater than 5880 nM.
